Assay results reported in the NIST ThermoML archive (doi:10.1016/j.fluid.2006.06.022).
Numbers after ± are expanded uncertainties.

Details: Liquid, Ebulliometric method (Recirculating still)

vapor or sublimation pressure (313.15 K) [kPa]	vapor or sublimation pressure (323.15 K) [kPa]	vapor or sublimation pressure (333.15 K) [kPa]	vapor or sublimation pressure (343.15 K) [kPa]	vapor or sublimation pressure (353.15 K) [kPa]	vapor or sublimation pressure (363.15 K) [kPa]	Compound
1831 ± 9	2307 ± 10	2874 ± 13				CC(F)(F)F [1,1,1-trifluoroethane]
1374 ± 6	1712 ± 8	2115 ± 9	2586 ± 11	3151 ± 14	3767 ± 16	CCC [propane]
